Data from patent US20240002344A1, “COMPOUNDS, COMPOSITIONS AND METHODS FOR HISTONE LYSINE DEMETHYLASE INHIBITION” (FibroGen, Inc., priority 2020, published 2024).

Tests used:
recombinant human KDM5B = biological target: T1, recombinant human KDM5B (Homo sapiens, UniProt Q9UGL1); assay: 14CO2 capture enzymatic assay (decarboxylation of [1-14C] αKG), KDM5B; format: biochemical; details: 10 μM [1-14C] αKG, 90 μM non-labeled αKG, 50 μM peptide substrate, 37° C., 1 hour, final 1% DMSO
T1 sequence (Q9UGL1 374-755 limits assumed): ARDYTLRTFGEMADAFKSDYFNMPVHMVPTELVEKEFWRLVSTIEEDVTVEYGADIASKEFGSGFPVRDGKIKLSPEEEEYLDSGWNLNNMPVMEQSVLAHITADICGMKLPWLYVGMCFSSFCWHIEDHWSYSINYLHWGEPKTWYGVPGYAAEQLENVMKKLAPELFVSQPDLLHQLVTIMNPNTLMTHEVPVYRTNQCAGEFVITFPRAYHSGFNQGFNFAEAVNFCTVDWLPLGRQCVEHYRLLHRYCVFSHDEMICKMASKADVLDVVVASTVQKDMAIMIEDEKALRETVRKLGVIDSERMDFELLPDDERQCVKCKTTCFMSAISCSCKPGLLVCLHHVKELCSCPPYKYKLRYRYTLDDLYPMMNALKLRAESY
Experimental: (§1) Enzymatic activity was determined based on the capture of ^14CO2 released by the decarboxylation of [1-^14C] αKG (Zhang et al., Anal. Biochem., 1998, vol. 271, pp. 137-142). [1-^14C]alphaketoglutarate (αKG) was from Perkin-Elmer, H3K4me3 and H3K9me3 peptides were from Mimotopes. All other reagents were from Sigma. Reaction mixtures included the following components: Fe(SO4), [1-^14C] αKG, non-labeled αKG, ascorbate, peptide-substrate (H3K4me3: H-ARTK(me3)QTARKSTGGKAPRKQLA-OH. H3K9me3: H-ARTKQTARK(me3)STGGKAPRKQLA-OH), NaCl, Tween-20 and catalase in 25 mM HEPES buffer, pH 7.4. The enzymatic reactions were initiated by addition of recombinant human KDM5B or KDM4A enzyme (truncated enzyme produced in house by method and using sequence disclosed in Ng et al, Nature 448:87-91, 2007). The reactions were performed in 96-well microtiter plates (20 μL total assay volume) (Greiner #650201). ^14CO2 was captured on a glass fiber filter paper (Cat. No. IH-201-A, Inotech Biosystems International) soaked with saturated Ba(OH)2 that was laid on top of the 96-well plate. A microtiter plate sealer film (Thermal Seal cat #T7961100) was applied to the filter paper. The plate and filter paper were sandwiched between two custom made aluminum plates (Advanced Component Manufacturing, Burlingame, CA) and transferred to a 37° C. oven and allowed to incubate for 1 hour. After incubation, the filter paper was dried in a 103° C. oven for 40-60 minutes. To determine percent turnover, aliquots of the reaction mixture were spotted onto the filter paper and the filter paper was dried again. The dry filter paper was exposed to a storage phosphor screen for 24-72 hours and the images recorded using a Typhoon FLA 7000 Imager (Amersham Biosciences, Piscataway, NJ). Integrated spot intensities corresponding to control reactions lacking the enzyme were subtracted from integration results for enzyme containing reactions and data were converted to enzyme dependent percent ^14CO2 release. All enzymatic reactions were run in duplicates.
(§2) For IC50 determination, a 3-fold dilution series of compound was prepared and added to the reaction mixture (final 1% DMSO, v/v) prior to enzyme addition. The final reagent concentrations were: 10 μM Fe(SO4), 10 μM [1-^14C] αKG, 90 μM non-labeled αKG, 2 mM ascorbate, 50 μM peptide substrate, 75 mM NaCl, 0.01% Tween-20 and ˜2 units/μL catalase. IC50s were determined by non-linear fitting using Grafit version 7.0.

recombinant human KDM4A = biological target: T2, recombinant human KDM4A (Homo sapiens, UniProt O75164); assay: 14CO2 capture enzymatic assay (decarboxylation of [1-14C] αKG), KDM4A; format: biochemical; details: 10 μM [1-14C] αKG, 90 μM non-labeled αKG, 50 μM peptide substrate, 37° C., 1 hour, final 1% DMSO
T2 construct: made in house
T2 sequence (O75164 1-359 limits assumed): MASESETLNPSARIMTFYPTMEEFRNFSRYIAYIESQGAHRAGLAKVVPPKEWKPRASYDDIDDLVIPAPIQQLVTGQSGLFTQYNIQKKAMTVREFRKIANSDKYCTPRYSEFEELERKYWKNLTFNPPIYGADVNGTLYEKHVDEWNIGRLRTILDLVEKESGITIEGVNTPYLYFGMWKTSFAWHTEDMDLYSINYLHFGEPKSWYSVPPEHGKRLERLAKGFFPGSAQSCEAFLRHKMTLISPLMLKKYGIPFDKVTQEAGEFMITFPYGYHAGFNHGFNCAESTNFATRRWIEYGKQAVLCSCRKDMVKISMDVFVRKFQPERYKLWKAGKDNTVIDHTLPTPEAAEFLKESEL
Experimental: as §1, §2

Row | Compound | IC50 (recombinant human KDM5B) | IC50 (recombinant human KDM4A)
1 | N#Cc1cc(Cc2c(Cl)cccc2C(F)(F)F)nc(C(=O)CCC(=O)O)c1O [Example 59, 4-[6-(2-Chloro-6-trifluoromethyl-benzyl)-4-cyano-3-hydroxy-pyridin-2-yl]-4-oxo-butyric acid] | 330 nM | > 40 µM
2 | N#Cc1cc(Cc2c(F)cccc2C(F)(F)F)nc(C(=O)CCC(=O)O)c1O [Example 60, 4-[6-(2-Fluoro-6-trifluoromethyl-benzyl)-4-cyano-3-hydroxy-pyridin-2-yl]-4-oxo-butyric acid] | 330 nM | > 40 µM
3 | COc1cccc(C(F)(F)F)c1Cc1cc(C#N)c(O)c(C(=O)CCC(=O)O)n1 [Example 61, 4-[4-Cyano-3-hydroxy-6-(2-methoxy-6-trifluoromethyl-benzyl)-pyridin-2-yl]-4-oxo-butyric acid] | 570 nM | > 40 µM
4 | Cc1cccc(C(F)(F)F)c1Cc1cc(C#N)c(O)c(C(=O)CCC(=O)O)n1 [Example 62, 4-[4-Cyano-3-hydroxy-6-(2-methyl-6-trifluoromethyl-benzyl)-pyridin-2-yl]-4-oxo-butyric acid] | 470 nM | > 40 µM
5 | N#Cc1cc(Cc2cc(Cl)ccc2Cl)nc(C(=O)CCC(=O)O)c1O [Example 63, 4-[4-Cyano-6-(2,5-dichloro-benzyl)-3-hydroxy-pyridin-2-yl]-4-oxo-butyric acid] | 240 nM | 36 µM
6 | N#Cc1cc(Cc2ccc(Cl)cc2Cl)nc(C(=O)CCC(=O)O)c1O [Example 64, 4-[4-Cyano-6-(2,4-dichloro-benzyl)-3-hydroxy-pyridin-2-yl]-4-oxo-butyric acid] | 260 nM | > 40 µM
7 | N#Cc1cc(-c2ccc(OC(F)(F)F)cc2)nc(C(=O)CCC(=O)O)c1O [Example 67, 4-[4-Cyano-3-hydroxy-6-(4-trifluoromethoxy-phenyl)-pyridin-2-yl]-4-oxo-butyric acid] | 240 nM | > 40 µM
8 | N#Cc1cc(-c2cccc(-c3ccccc3)c2)nc(C(=O)CCC(=O)O)c1O [Example 74, 4-(6-Biphenyl-3-yl-4-cyano-3-hydroxy-pyridin-2-yl)-4-oxo-butyric acid] | 60 nM | > 40 µM
9 | N#Cc1cc(-c2ccc(-c3ccccc3)cc2)nc(C(=O)CCC(=O)O)c1O [Example 75, 4-(6-Biphenyl-4-yl-4-cyano-3-hydroxy-pyridin-2-yl)-4-oxo-butyric acid] | 90 nM | 20 µM
10 | N#Cc1cc(Oc2ccccc2)nc(C(=O)CCC(=O)O)c1O [Example 76, 4-(4-Cyano-3-hydroxy-6-phenoxy-pyridin-2-yl)-4-oxo-butyric acid] | 190 nM | > 40 µM
11 | N#Cc1cc(Oc2ccc(F)cc2)nc(C(=O)CCC(=O)O)c1O [Example 79, 4-[4-Cyano-6-(4-fluoro-phenoxy)-3-hydroxy-pyridin-2-yl]-4-oxo-butyric acid] | 230 nM | > 40 µM
12 | N#Cc1cc(F)ccc1-c1cc(C#N)c(O)c(C(=O)CCC(=O)O)n1 [Example 87, 4-[4-Cyano-6-(2-cyano-4-fluoro-phenyl)-3-hydroxy-pyridin-2-yl]-4-oxo-butyric acid] | 280 nM | > 40 µM

Continued, values first:

Row | IC50 (recombinant human KDM5B) | IC50 (recombinant human KDM4A) | Compound
13 | 180 nM | 14 µM | N#Cc1cc(Cc2cccc(Cl)c2Cl)nc(C(=O)CCC(=O)O)c1O [Example 65, 4-[4-Cyano-6-(2,3-dichloro-benzyl)-3-hydroxy-pyridin-2-yl]-4-oxo-butyric acid]
14 | 280 nM | > 40 µM | N#Cc1cc(-c2cccc3ccccc23)nc(C(=O)CCC(=O)O)c1O [Example 68, 4-(4-Cyano-3-hydroxy-6-naphthalen-1-yl-pyridin-2-yl)-4-oxo-butyric acid]
15 | 150 nM | > 40 µM | N#Cc1cc(-c2ccccc2F)nc(C(=O)CCC(=O)O)c1O [Example 69, 4-[4-Cyano-6-(2-fluoro-phenyl)-3-hydroxy-pyridin-2-yl]-4-oxo-butyric acid]
16 | 300 nM | > 40 µM | N#Cc1cc(-c2ccccc2Cl)nc(C(=O)CCC(=O)O)c1O [Example 70, 4-[6-(2-Chloro-phenyl)-4-cyano-3-hydroxy-pyridin-2-yl]-4-oxo-butyric acid]
17 | 310 nM | > 40 µM | Cc1ccccc1-c1cc(C#N)c(O)c(C(=O)CCC(=O)O)n1 [Example 71, 4-(4-Cyano-3-hydroxy-6-o-tolyl-pyridin-2-yl)-4-oxo-butyric acid]
18 | 100 nM | > 40 µM | Cc1cccc(-c2cc(C#N)c(O)c(C(=O)CCC(=O)O)n2)c1 [Example 72, 4-(4-Cyano-3-hydroxy-6-m-tolyl-pyridin-2-yl)-4-oxo-butyric acid]
19 | 110 nM | > 40 µM | Cc1ccc(-c2cc(C#N)c(O)c(C(=O)CCC(=O)O)n2)cc1 [Example 73, 4-(4-Cyano-3-hydroxy-6-p-tolyl-pyridin-2-yl)-4-oxo-butyric acid]
20 | 40 nM | 12 µM | N#Cc1cc(-c2ccc3ccccc3c2)nc(C(=O)CCC(=O)O)c1O [Example 77, 4-(4-Cyano-3-hydroxy-6-naphthalen-2-yl-pyridin-2-yl)-4-oxo-butyric acid]
21 | 90 nM | > 40 µM | N#Cc1cc(Sc2ccccc2)nc(C(=O)CCC(=O)O)c1O [Example 78, 4-(4-Cyano-3-hydroxy-6-phenylsulfanyl-pyridin-2-yl)-4-oxo-butyric acid]
22 | 390 nM | > 40 µM | Cc1c(F)cccc1-c1cc(C#N)c(O)c(C(=O)CCC(=O)O)n1 [Example 80, 4-[4-Cyano-6-(3-fluoro-2-methyl-phenyl)-3-hydroxy-pyridin-2-yl]-4-oxo-butyric acid]
23 | 340 nM | > 40 µM | COc1ccc(-c2cc(C#N)c(O)c(C(=O)CCC(=O)O)n2)c(Cl)c1 [Example 81, 4-[6-(2-Chloro-4-methoxy-phenyl)-4-cyano-3-hydroxy-pyridin-2-yl]-4-oxo-butyric acid]
24 | 350 nM | > 40 µM | Cc1ccc(F)cc1-c1cc(C#N)c(O)c(C(=O)CCC(=O)O)n1 [Example 82, 4-[4-Cyano-6-(5-fluoro-2-methyl-phenyl)-3-hydroxy-pyridin-2-yl]-4-oxo-butyric acid]
25 | 250 nM | > 40 µM | N#Cc1cc(-c2ccc(F)cc2Cl)nc(C(=O)CCC(=O)O)c1O [Example 83, 4-[6-(2-Chloro-4-fluoro-phenyl)-4-cyano-3-hydroxy-pyridin-2-yl]-4-oxo-butyric acid]
26 | 460 nM | > 40 µM | Cc1ccc(-c2cc(C#N)c(O)c(C(=O)CCC(=O)O)n2)c(Cl)c1 [Example 84, 4-[6-(2-Chloro-4-methyl-phenyl)-4-cyano-3-hydroxy-pyridin-2-yl]-4-oxo-butyric acid]
27 | 450 nM | > 40 µM | CCc1ccccc1-c1cc(C#N)c(O)c(C(=O)CCC(=O)O)n1 [Example 85, 4-[4-Cyano-6-(2-ethyl-phenyl)-3-hydroxy-pyridin-2-yl]-4-oxo-butyric acid]
28 | 450 nM | > 40 µM | Cc1cc(F)ccc1-c1cc(C#N)c(O)c(C(=O)CCC(=O)O)n1 [Example 86, 4-[4-Cyano-6-(4-fluoro-2-methyl-phenyl)-3-hydroxy-pyridin-2-yl]-4-oxo-butyric acid]
